Assay results as given in US4259328A, “Morpholino pyridazinylhydrazones” (Richter Gedeon Vegyeszeti Gyar Rt, priority 1977, dated 1981).
Read-outs that look alike come from different tables or passages of the source.

How the values were obtained:
[1] = system: spontaneous hypertensive rats (Wistar-Okamoto rats); assay: Blood pressure lowering activity, systolic blood pressure of waking spontaneous hypertensive rats, oral; format: in vivo, rat; settings: for change in vivo at 50 mg/kg / change in vivo at 1.25 mg/kg / change in vivo at 20 mg/kg: Rattus norvegicus, read-out: Reduction in blood pressure; for change in vivo at 50 mg/kg / change in vivo at 1.25 mg/kg / Reduction in blood pressure / change in vivo at 20 mg/kg: oral; for significant blood pressure lowering activity: ≥-15%; for change in vivo at 50 mg/kg / Reduction in blood pressure: 50 mg/kg
Experimental: Blood pressure lowering activity of the new compounds according to the invention was tested on spontaneous hypertensive rats (Wistar-Okamoto rats) following the method described in Arzn. Forsch., 6, 222 (1956). Systolic blood pressure of waking animals was measured in arteria caudalis 4, 24, 48 and 72 hours after the oral administration of the test compounds.

[2] = biological target: T1, dopamine-β-hydroxylase (Bos taurus, UniProt P15101); assay: Dopamine-β-hydroxylase inhibiting activity (DBH) on bovine adrenal (gland) preparations; format: biochemical; settings: read-out: Enzyme inhibiting activity, DBH; for inhibition at 100 µM: 10^-4 mole/liter; for inhibition at 10 µM: 10^-5 mole/liter
T1 construct: from tissue; host or cells: bovine adrenal (gland) preparations
T1 sequence (P15101 1-610): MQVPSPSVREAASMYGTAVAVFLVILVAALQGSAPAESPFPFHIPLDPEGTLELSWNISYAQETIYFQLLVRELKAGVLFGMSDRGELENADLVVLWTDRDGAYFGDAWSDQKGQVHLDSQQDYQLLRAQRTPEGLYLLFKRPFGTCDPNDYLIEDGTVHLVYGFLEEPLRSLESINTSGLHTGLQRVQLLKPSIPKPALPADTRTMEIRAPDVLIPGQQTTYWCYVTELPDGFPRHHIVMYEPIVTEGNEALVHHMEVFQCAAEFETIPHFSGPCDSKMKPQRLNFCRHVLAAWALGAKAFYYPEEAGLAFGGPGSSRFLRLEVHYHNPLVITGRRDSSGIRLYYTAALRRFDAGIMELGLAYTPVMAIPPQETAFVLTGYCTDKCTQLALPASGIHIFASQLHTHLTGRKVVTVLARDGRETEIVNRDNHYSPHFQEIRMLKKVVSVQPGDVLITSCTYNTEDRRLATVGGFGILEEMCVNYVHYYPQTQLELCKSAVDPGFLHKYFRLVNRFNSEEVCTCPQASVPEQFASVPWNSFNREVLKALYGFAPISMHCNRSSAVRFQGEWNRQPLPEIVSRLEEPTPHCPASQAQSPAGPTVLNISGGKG
Experimental: Dopamine-β-hydroxylase inhibiting activity (DBH inhibiting activity) of the compounds according to the invention was tested on bovine adrenal (gland) preparations by a modified version of Nagatsu's method [B.B. Acta, 139 319 (1967)].
(§1) Inhibiting effect of several compounds encompassed by the formula I in comparison with some known compounds is listed in the following Table I.

[3] = biological target: T2, tyrosine-hydroxylase (Rattus norvegicus, UniProt P04177); assay: In vitro tyrosine-hydroxylase inhibiting activity (TH) on rat adrenal homogenate; format: biochemical; settings: read-out: Enzyme inhibiting activity, TH; for inhibition at 100 µM: 10^-4 mole/liter; for inhibition at 10 µM: 10^-5 mole/liter
T2 construct: on rat adrenal homogenate; from tissue; host or cells: rat adrenal homogenate
T2 sequence (P04177 whole entry): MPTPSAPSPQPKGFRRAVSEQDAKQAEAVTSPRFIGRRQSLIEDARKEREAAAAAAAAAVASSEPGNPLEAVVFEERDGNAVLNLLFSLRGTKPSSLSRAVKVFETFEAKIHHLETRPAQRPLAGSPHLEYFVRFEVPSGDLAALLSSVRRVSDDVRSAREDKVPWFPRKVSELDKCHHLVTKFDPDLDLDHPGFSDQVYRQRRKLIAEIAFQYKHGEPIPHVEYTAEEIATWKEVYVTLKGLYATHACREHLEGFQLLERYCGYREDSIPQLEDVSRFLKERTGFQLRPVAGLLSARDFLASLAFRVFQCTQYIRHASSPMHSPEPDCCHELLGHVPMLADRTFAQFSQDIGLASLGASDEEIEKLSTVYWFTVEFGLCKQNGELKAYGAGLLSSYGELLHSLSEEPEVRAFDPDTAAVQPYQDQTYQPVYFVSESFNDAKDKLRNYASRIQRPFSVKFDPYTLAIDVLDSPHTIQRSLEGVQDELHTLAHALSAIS
Experimental: In vitro tyrosine-hydroxylase inhibiting activity (TH inhibiting activity) of the new compounds according to the invention was tested by the method of Nagatsu [Anal. Biochem., 9, 122 (1964)] on rat adrenal homogenate. Radioactive tyrosine was purified by the method elaborated by Ikeda [J. Biol. Chem., 241, 4452 (1966)]. TH activity of the rat adrenal homogenate amounted to […] nmoles/mg protein/60 min.
as §1

[4] = Acute toxicity (LD50) on mice; settings: mouse, in vivo, po
[5] = system: mice; assay: Acute toxicity (LD50) on mice; settings: i.p.

Molecule | change in vivo at 50 mg/kg ([1]; 4 hours) [%] | change in vivo at 50 mg/kg ([1]; 24 hours) [%] | duration of blood pressure lowering effect ([1]; dose 20 mg/kg) [h] | duration of blood pressure lowering effect ([1]; dose of 50 mg/kg) [h] | significant blood pressure lowering activity [1] [%] | inhibition at 100 µM [2] [%] | inhibition at 10 µM [2] [%] | inhibition at 100 µM [3] [%] | inhibition at 10 µM [3] [%] | LD50 [4] [mg/kg] | change in vivo at 1.25 mg/kg ([1]; 4 hours) [%] | change in vivo at 1.25 mg/kg ([1]; 24 hours) [%] | Reduction in blood pressure ([1]; 4 hours) [%] | Reduction in blood pressure ([1]; 24 hours) [%] | Acute toxicity [LD50] on mice [5] [mg/kg] | change in vivo at 20 mg/kg ([1]; 4 hours) [%] | change in vivo at 20 mg/kg ([1]; 24 hours) [%]
CC(CC(=O)OC(C)C)=NNc1ccc(Cl)nn1 [Example 29, 3-(Isopropoxycarbonyl)-2-propylidene-3-chloro-6-pyridazinylhydrazone] | -30 | -15 | 48 | 72 | ≥ -15 | 70 | 47 | 50 | 0 | 250 | – | – | – | – | – | – | –
CC(CC(=O)OC(C)(C)C)=NNc1ccc(N2CCOCC2)nn1 [Example 52, 3-(tert.-Butoxycarbonyl)-2-propylidene-3-morpholino-6-pyridazinylhydrazone] | – | – | – | – | ≥ -15 | 30 | 0 | 65 | 40 | 400 | -21 | -9 | – | – | – | – | –
Fumaric acid [reference compound] | – | – | – | – | – | – | – | – | – | – | – | – | -33 | 0 | 80 | – | –
O=C(O)C1CCCCC1=NNc1cccnn1 (stereo not shown) [Example 19, 2-carboxy-1-cyclohexylidene-3-pyridazinylhydrazone] | -8 | -9 | – | – | – | 75 | 10 | 82 | 30 | > 200 | – | – | – | – | – | – | –
CC(CC(=O)OC(C)(C)C)=NNc1ccc(Cl)nn1 [Example 30, 3-(tert.-Butoxycarbonyl)-2-propylidene-3-chloro-6-pyridazinylhydrazone] | -31 | -14 | 48 | 72 | ≥ -15 | 70 | 22 | 50 | 0 | 250 | – | – | – | – | – | – | –
CCOC(=O)C1CCCCC1=NNc1ccc(Cl)nn1 (stereo not shown) [Example 17, 2-(Ethoxycarbonyl)-1-cyclohexylidene-3-chloro-6-pyridazinylhydrazone] | -23 | -13 | – | – | ≥ -15 | 70 | 10 | 85 | 33 | 300 | – | – | – | – | – | – | –
CCCOC(=O)CC(C)=NNc1ccc(Cl)nn1 [Example 28, 3-(Propoxycarbonyl)-2-propylidene-3-chloro-6-pyridazinylhydrazone] | -29 | -25 | – | – | ≥ -15 | 90 | 71 | 0 | 0 | > 200 | – | – | – | – | – | – | –
CCOC(=O)CC(C)=NNc1ccc(Cl)nn1 [Example 20, 3-(Ethoxycarbonyl)-2-propylidene-(3-chloro-6-pyridazinyl)hydrazone] | -25 | -25 | – | – | ≥ -15 | 100 | 87 | 100 | 50 | 530 | – | – | – | – | – | – | –
COC(=O)CC(=NNc1ccc(Cl)nn1)C(=O)OC [Example 64, 1,2-di-(methoxycarbonyl)-ethylidene-(3-chloro-6-pyridazinyl)hydrazone] | -25 | -11 | – | – | ≥ -15 | 50 | 0 | 36 | 10 | > 200 | – | – | – | – | – | – | –
CC(CCC(=O)O)=NNc1ccc(C)nn1 [Example 55, 4-Carboxy-2-butylidene-(3-methyl-6-pyridazinyl) hydrazone] | – | – | – | – | ≥ -15 | 50 | 0 | – | – | > 200 | – | – | – | – | – | -39 | -14
